23 compounds from ChEMBL document CHEMBL4340536, “Design, synthesis and structure-activity relationship study of aminopyridine derivatives as novel inhibitors of Janus kinase 2” (Bioorg Med Chem Lett, 2019) can be followed below.

Broadly, the IC50 is the concentration at which inhibition is half-maximal. One may read the ΔTm as the change in melting temperature against a reference sample. What is called inhibition is the drop in the measured response relative to a control, in per cent.

The source made the active and inactive calls. No cut-off for these calls is given here. Where only a bound is given, the exact number is not on record here.

Data set [1] deals with T1, Tyrosine-protein kinase JAK2 (Homo sapiens, UniProt O60674). As to the kind of experiment: Inhibition of human recombinant N-terminal hexahistidine tagged JAK2 JH1 catalytic domain (835 to 1132 residues) expressed in baculovirus infected Sf9 cells using Tyr6 peptide as substrate incubated for 30 secs under shaking condition measured after 1 hr by Z'-LYTE assay.
Data set [2] has as its system HEL. Nature of the data set: Antiproliferative activity against HEL cells harboring JAK2 V617F mutant measured after 3 days by CCK8 assay. It is filed as functional, cell-based. Conditions: Homo sapiens, 72 h. In general terms: Formazan colour is commonly taken as a measure of viable cells.
Data set [3] deals with T1, Tyrosine-protein kinase JAK2. To be noted: Sf9.
The target of data set [4] is Tyrosine-protein kinase JAK1 (Homo sapiens, UniProt P23458). As to the kind of experiment: Inhibition of human recombinant N-terminal hexahistidine tagged JAK1 JH1 catalytic domain (854 to 1154 residues) expressed in baculovirus infected Sf9 cells using Tyr6 peptide as substrate incubated for 30 secs under shaking condition measured after 1 hr by Z'-LYTE assay.
Data set [5] addresses T2, Tyrosine-protein kinase JAK3 (Homo sapiens, UniProt P52333).
T2 sequence (P52333 whole entry): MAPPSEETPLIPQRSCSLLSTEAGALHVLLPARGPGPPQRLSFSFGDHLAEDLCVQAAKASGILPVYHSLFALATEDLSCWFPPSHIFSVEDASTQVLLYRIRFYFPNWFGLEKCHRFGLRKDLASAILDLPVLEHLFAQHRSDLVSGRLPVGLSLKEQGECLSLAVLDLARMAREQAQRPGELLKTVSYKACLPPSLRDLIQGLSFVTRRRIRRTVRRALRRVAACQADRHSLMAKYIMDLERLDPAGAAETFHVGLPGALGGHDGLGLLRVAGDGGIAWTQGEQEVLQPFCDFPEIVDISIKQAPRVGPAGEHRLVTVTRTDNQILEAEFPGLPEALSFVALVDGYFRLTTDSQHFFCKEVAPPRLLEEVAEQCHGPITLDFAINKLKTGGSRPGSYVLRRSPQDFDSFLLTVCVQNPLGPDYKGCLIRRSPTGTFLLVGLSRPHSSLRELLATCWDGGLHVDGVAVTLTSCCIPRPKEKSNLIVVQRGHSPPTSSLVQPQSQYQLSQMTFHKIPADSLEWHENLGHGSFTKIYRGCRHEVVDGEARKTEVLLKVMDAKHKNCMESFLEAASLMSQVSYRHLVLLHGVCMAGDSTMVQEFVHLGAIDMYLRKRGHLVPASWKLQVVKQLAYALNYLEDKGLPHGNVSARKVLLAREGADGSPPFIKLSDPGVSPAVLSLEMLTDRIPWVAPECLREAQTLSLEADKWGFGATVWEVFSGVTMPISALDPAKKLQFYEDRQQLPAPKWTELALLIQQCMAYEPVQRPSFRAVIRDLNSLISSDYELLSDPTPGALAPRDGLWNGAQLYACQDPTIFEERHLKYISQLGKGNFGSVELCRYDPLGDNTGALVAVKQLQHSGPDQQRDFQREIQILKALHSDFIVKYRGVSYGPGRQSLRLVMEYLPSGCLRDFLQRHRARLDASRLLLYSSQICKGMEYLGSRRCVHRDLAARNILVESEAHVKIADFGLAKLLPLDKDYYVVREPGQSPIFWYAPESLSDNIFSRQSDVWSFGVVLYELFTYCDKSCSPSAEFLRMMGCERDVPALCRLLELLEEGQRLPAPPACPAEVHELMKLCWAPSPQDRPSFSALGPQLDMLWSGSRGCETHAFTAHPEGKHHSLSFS
As to the kind of experiment: Inhibition of human recombinant C-terminal hexahistidine tagged JAK3 JH1 catalytic domain (811 to 1124 residues) expressed in baculovirus infected Sf9 cells using Tyr6 peptide as substrate incubated for 30 secs under shaking condition measured after 1 hr by Z'-LYTE assay.

The target in data set [6] is Non-receptor tyrosine-protein kinase TYK2 (Homo sapiens, UniProt P29597). Nature of the data set: Inhibition of TYK2 (unknown origin) using peptide as substrate preincubated for 10 mins followed by substrate addition by mobility shift assay.
The species entered for data set [7] is Homo sapiens. Nature of the data set: Selectivity ratio of IC50 for human recombinant N-terminal hexahistidine tagged JAK1 JH1 catalytic domain (854 to 1154 residues) expressed in baculovirus infected Sf9 cells to IC50 for human recombinant N-terminal hexahistidine tagged JAK2 JH1 catalytic domain (835 to 1132 residues) expressed in baculovirus infected Sf9 cells.

The species named for data set [8] is Homo sapiens. Nature of the data set: Selectivity ratio of IC50 for human recombinant C-terminal hexahistidine tagged JAK3 JH1 catalytic domain (811 to 1124 residues) expressed in baculovirus infected Sf9 cells to IC50 for human recombinant N-terminal hexahistidine tagged JAK2 JH1 catalytic domain (835 to 1132 residues) expressed in baculovirus infected Sf9 cells.

The species entered for data set [9] is Homo sapiens. Nature of the data set: Selectivity ratio of IC50 for TYK2 (unknown origin) to IC50 for human recombinant N-terminal hexahistidine tagged JAK2 JH1 catalytic domain (835 to 1132 residues) expressed in baculovirus infected Sf9 cells.
Data set [10] can be described thus: Toxicity in incomplete Freund's adjuvant-induced Wistar rat arthritic model assessed as effect on body weight growth at 10 to 50 mg/kg, po administered daily for 28 days starting from 8 days post-immunization measured every 3 days during compound dosing. It counts as organism-based. Conditions: in vivo.
The test system of data set [11] is Rattus norvegicus. As to the kind of experiment: Antiarthritic activity in incomplete Freund's adjuvant-induced Wistar rat arthritic model assessed as decrease in arthritis swelling score at 50 mg/kg, po administered daily for 28 days starting from 8 days post-immunization measured daily during compound dosing. It counts as functional, organism-based.
Data set [12] deals with Rattus norvegicus. As to the kind of experiment: Antiarthritic activity in po dosed incomplete Freund's adjuvant-induced Wistar rat arthritic model assessed as reduction in foot swelling administered daily for 28 days starting from 8 days post-immunization measured daily during compound dosing. It counts as functional, organism-based.
Data set [13] deals with Rattus norvegicus. As to the kind of experiment: Antiarthritic activity in incomplete Freund's adjuvant-induced Wistar rat arthritic model assessed as decrease in arthritic incidences at 10 to 50 mg/kg, po administered daily for 28 days starting from 8 days post-immunization measured daily during compound dosing. It is filed as functional, organism-based.
The nature of data set [14]: Toxicity in incomplete Freund's adjuvant-induced Wistar rat arthritic model assessed as effect on body weight growth at 0.3 mg/kg, po administered daily for 28 days starting from 8 days post-immunization measured every 3 days during compound dosing. It counts as organism-based. To be noted: in vivo.
Data set [15] relates to Rattus norvegicus. As to the kind of experiment: Antiarthritic activity in incomplete Freund's adjuvant-induced arthritis model Wistar rat at 0.3 mg/kg, po administered daily for 28 days starting from 8 days post-immunization measured daily during compound. It is filed as functional, organism-based.
Data set [16] deals with T1, Tyrosine-protein kinase JAK2. As to the kind of experiment: Inhibition of human recombinant N-terminal hexahistidine tagged JAK2 JH1 catalytic domain (835 to 1132 residues) expressed in baculovirus infected Sf9 cells at 1 uM using Tyr6 peptide as substrate incubated for 30 secs under shaking condition measured after 1 hr by Z'-LYTE assay relative to control.

T1 sequence (O60674 whole entry, the tested form may be a part): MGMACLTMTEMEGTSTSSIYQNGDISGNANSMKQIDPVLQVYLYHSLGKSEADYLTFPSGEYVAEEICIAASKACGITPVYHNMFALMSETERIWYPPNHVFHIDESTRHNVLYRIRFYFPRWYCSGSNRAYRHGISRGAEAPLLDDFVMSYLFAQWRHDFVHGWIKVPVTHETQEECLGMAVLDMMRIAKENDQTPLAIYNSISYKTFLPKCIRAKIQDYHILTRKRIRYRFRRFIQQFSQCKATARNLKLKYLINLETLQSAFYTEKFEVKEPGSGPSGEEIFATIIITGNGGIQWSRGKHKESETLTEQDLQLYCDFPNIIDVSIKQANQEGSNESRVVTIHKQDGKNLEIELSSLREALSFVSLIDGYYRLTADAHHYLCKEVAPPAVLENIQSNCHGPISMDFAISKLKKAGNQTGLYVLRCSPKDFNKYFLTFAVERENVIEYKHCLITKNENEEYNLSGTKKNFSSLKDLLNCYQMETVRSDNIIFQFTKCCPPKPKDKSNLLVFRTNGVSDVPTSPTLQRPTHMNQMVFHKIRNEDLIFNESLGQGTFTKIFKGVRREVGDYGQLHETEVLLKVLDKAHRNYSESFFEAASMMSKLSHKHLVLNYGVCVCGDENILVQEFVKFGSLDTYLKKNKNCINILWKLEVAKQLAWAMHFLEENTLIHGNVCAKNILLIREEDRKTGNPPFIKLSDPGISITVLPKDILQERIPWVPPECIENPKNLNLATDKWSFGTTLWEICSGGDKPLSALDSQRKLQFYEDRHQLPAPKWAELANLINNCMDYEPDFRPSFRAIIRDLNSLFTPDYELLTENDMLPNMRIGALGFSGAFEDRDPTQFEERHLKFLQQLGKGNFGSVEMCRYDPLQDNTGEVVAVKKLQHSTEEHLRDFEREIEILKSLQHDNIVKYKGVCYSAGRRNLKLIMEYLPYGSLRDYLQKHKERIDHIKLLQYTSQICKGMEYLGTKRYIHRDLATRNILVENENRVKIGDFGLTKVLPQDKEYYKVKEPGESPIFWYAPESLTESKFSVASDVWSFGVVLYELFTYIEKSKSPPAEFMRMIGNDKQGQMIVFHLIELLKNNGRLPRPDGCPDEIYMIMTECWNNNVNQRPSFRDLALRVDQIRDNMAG
Chain of Tyrosine-protein kinase JAK1 (P23458 whole entry, the tested form may be a part): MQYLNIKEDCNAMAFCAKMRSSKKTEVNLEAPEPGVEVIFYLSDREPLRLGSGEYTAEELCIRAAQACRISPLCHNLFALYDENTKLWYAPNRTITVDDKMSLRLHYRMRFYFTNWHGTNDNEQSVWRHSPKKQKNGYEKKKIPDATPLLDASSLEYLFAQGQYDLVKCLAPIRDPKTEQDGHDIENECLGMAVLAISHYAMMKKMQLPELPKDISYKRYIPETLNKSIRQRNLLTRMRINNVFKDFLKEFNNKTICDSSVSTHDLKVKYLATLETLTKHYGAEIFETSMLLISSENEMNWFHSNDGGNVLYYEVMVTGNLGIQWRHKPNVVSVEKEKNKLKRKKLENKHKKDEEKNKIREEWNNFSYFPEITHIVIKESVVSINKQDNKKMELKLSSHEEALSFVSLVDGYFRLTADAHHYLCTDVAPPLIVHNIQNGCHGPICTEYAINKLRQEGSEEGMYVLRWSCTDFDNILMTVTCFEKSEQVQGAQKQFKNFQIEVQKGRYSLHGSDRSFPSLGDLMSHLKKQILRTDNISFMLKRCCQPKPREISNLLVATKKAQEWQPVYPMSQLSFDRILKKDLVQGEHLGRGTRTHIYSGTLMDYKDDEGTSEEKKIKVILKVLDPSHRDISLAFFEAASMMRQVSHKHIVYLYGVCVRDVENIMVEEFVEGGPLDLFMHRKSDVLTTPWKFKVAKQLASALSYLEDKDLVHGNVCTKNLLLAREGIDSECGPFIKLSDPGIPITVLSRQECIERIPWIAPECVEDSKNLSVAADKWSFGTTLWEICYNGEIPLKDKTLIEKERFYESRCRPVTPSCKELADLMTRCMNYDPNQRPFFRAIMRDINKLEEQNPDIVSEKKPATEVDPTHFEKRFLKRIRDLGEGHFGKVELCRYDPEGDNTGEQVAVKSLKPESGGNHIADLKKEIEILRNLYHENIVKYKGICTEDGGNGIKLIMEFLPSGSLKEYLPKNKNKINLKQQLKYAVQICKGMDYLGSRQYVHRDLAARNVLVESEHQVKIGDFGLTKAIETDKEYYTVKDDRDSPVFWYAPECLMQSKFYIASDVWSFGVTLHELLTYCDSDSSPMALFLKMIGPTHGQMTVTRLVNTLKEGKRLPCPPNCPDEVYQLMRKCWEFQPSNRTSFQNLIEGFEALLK
Chain of Non-receptor tyrosine-protein kinase TYK2 (P29597 whole entry, the tested form may be a part): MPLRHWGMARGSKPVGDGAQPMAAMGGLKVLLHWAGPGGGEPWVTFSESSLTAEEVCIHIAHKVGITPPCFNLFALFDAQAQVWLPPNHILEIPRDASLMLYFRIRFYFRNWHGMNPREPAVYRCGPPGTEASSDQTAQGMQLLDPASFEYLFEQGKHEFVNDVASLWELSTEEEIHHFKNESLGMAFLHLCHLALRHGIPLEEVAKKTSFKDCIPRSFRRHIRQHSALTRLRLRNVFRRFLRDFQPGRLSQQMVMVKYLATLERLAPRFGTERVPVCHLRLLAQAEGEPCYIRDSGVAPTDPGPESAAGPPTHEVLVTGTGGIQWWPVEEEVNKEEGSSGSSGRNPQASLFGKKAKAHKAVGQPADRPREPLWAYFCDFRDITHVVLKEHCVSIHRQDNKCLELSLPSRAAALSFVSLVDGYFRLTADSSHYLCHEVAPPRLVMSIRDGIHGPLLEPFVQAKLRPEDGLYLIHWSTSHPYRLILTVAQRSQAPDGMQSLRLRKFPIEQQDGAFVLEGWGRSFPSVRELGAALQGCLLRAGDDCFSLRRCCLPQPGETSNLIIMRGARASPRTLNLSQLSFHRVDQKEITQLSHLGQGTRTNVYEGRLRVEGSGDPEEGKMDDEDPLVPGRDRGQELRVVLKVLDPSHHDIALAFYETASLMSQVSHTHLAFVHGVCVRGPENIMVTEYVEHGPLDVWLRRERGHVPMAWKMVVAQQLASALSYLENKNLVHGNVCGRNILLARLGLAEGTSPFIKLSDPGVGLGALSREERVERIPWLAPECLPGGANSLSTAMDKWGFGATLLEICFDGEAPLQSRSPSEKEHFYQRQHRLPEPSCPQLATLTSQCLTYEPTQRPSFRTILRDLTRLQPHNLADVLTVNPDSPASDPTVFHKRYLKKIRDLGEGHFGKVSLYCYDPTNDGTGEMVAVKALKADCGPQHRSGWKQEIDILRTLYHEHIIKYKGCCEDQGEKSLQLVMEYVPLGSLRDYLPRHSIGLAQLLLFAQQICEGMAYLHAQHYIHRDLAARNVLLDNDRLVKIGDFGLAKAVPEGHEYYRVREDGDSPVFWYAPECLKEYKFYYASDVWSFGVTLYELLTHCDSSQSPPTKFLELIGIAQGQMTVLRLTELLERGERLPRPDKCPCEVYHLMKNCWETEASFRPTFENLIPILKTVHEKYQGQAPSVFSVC

With `CC(Oc1cc(-c2cnn(C3CCOCC3)c2)cnc1N)c1c(Cl)ccc(F)c1Cl` (stereo not drawn), the values for the concentration for half-maximal inhibition (IC50) in data set [1] and in [2] were 65 nM and over 100000 nM, respectively.

In [2], `CC(Oc1cc(-c2ccc(N3CCNCC3)cc2)cnc1N)c1cc(F)ccc1Cl` (stereo not drawn) came in with a half-maximal inhibitory concentration (IC50) of 19700 nM.

In the case of `CC(Nc1cc(-c2cnn(C3CCNCC3)c2)cnc1N)c1c(Cl)ccc(F)c1Cl` (stereo not drawn), the IC50 turned out to be 126 nM in data set [1] and 10800 nM in data set [2].

In [2], `C[C@@H](Oc1cc(-c2cnn(C3CCNCC3)c2)cnc1N)c1c(Cl)ccc(F)c1Cl` [CRIZOTINIB] returned an IC50 of 4720 nM. In addition, the ΔTm in data set [3] was 7.88 °C.

In the case of `N#CC[C@H](C1CCCC1)n1cc(-c2ncnc3[nH]ccc23)cn1` [RUXOLITINIB], half-maximal inhibition in data set [2] (IC50) required 7640 nM.

Consider `CC(Oc1cc(-c2cnn(C3CCNCC3)c2)cnc1N)c1cc(F)ccc1Cl` (stereo not drawn), for which the IC50 in data set [4] came to 660 nM; in [1], 6 nM; in data set [5], 513 nM; in data set [6], 1300 nM; in data set [2], 15000 nM. Also, the Ratio IC50 in [7] was determined as 110; in data set [8], 86; in [9] it was 216. Also, the Activity entry is “Non-Toxic” in [10] and “Dose-dependent effect” in data set [12]. In addition, the outcome in [11] and in [13] was Active.

In turn, `CC(Oc1cc(-c2cnn(C3CCNCC3)c2)cnc1N)c1c(Cl)ccc(F)c1Cl` (stereo not drawn) showed an IC50 in [2] of 6580 nM.

For `CC(Oc1cc(-c2ccc(C3CCNCC3)cc2)cnc1N)c1cc(F)ccc1Cl` (stereo not drawn), it took 16000 nM to reach half-maximal inhibition in data set [2] (IC50).

Consider `CC(Oc1cc(-c2cccc(N3CCNCC3)c2)cnc1N)c1cc(F)ccc1Cl` (stereo not drawn), for which the IC50 in data set [4] was 120 nM; in data set [5], 2790 nM; in data set [6], 2530 nM; in data set [2], 7200 nM. Besides, the Ratio IC50 in data set [7] came out at 4; in data set [8], 107; in data set [9], 94.

With `CC(Oc1cc(-c2cccnc2)cnc1N)c1c(Cl)ccc(F)c1Cl` (stereo not drawn), the IC50 was found to be 3050 nM in [1] and 20100 nM in data set [2].

Consider `CC(Oc1cc(-c2cnn(C3CCNCC3)c2)cnc1N)c1c(Cl)cccc1Cl` (stereo not drawn), for which the IC50 in [2] came out at 28400 nM.

As for `CN(Cc1cnc2nc(N)nc(N)c2n1)c1ccc(C(=O)N[C@@H](CCC(=O)O)C(=O)O)cc1` [METHOTREXATE], the Activity result in [14] was “Toxic”. Besides, in data set [15], the outcome was Active.

In turn, `CC(Oc1cc(-c2cccc(C3CCNCC3)c2)cnc1N)c1cc(F)ccc1Cl` (stereo not drawn) came in with a 50% inhibitory concentration (IC50) in data set [2] of 6200 nM.

Turning to `CC(Oc1cc(-c2cnn(C3CCNCC3)c2)cnc1N)C1CCCCC1` (stereo not drawn), in data set [2], the IC50 stood at 20900 nM.

For the compound `CC(Oc1cc(-c2cncc(N3CCNCC3)c2)cnc1N)c1c(Cl)ccc(F)c1Cl` (stereo not drawn), the figures for the IC50 in [1] and in [2] were 119 nM and 7450 nM, respectively.

Turning to `CC(Oc1cc(-c2cn[nH]c2)cnc1N)c1cc(F)ccc1Cl` (stereo not drawn), the 50% inhibitory concentration (IC50) in data set [4] was 82 nM; in data set [5], 965 nM; in [6] it was 1450 nM; in data set [2] it was 4850 nM. In addition, the Ratio IC50 in data set [7] is 5; in [8], 60; in data set [9] it was 91.

Turning to `COc1ccc(F)cc1C(C)Oc1cc(-c2cnn(C3CCNCC3)c2)cnc1N` (stereo not drawn), the IC50 in data set [4] worked out at 1800 nM; in [5], 1580 nM; in data set [6], 794 nM; in [2], 4190 nM. For the same compound, the Ratio IC50 was 598 in [7], 528 in data set [8] and 264 in data set [9].

`CC(Oc1cc(-c2ccc(N3CCNCC3)nc2)cnc1N)c1c(Cl)ccc(F)c1Cl` (stereo not drawn): the IC50 is 804 nM in data set [1] and 7760 nM in data set [2].

Turning to `CC(Oc1cc(-c2cnn(C3CCNCC3)c2)cnc1N)c1ccccc1` (stereo not drawn), the results for the IC50 in data set [1] and in [2] were 215 nM and 29600 nM, respectively.

As for `CCC(Oc1cc(-c2cnn(C3CCNCC3)c2)cnc1N)c1c(Cl)ccc(F)c1Cl` (stereo not drawn), the IC50 in data set [2] was found to be 9980 nM.

As for `CC(Oc1cc(-c2ccccc2)cnc1N)c1c(Cl)ccc(F)c1Cl` (stereo not drawn), in data set [16], the inhibition was found to be 7.15%. This compound also registered an IC50 in data set [2] of over 100000 nM.

The compound `CC(Oc1cc(-c2ccccc2)cnc1N)c1cc(F)ccc1Cl` (stereo not drawn) registered an IC50 in data set [2] of over 100000 nM.

As to `COc1ccc(F)c(Cl)c1C(C)Oc1cc(-c2cnn(C3CCNCC3)c2)cnc1N` (stereo not drawn), the IC50 in data set [4] turned out to be 1220 nM; in data set [1] it was 26 nM; in data set [5], 1760 nM; in data set [6], 774 nM; in data set [2], 13600 nM. The Ratio IC50 in data set [7] stood at 46; in data set [8], 66; in data set [9], 30.
